In assay [1] the test system is BV2 microglia. Description: LPS-induced NO production in BV2 microglial cell line (Griess reaction). Type of assay: cell-based. Conditions: for LPS-induced NO production: BV2, Src kinase inhibitor PP2 (5 μM) or PDTC (FIG. 18). As for the experimental part:
Since the production of NO (nitric oxide) is a strong marker of inflammatory response in microglia, the effect of PTP1B on LPS-induced NO production was investigated through the Griess reaction. The production of NO was measured using the amount of nitrite. Naive microglia or microglia overexpressing PTP1B were treated with LPS (originated from E. coli 055: B5; Sigma). FIG. 6 illustrates the result of treatment with a BV2 microglial cell line at the indicated dose of LPS. FIG. 7 illustrates the results of treating a BV2 microglial cell line with 100 ng LPS at the indicated time. 24 hours after incubation, 5 μl the cell culture media was mixed with Griess reagent with the same volume (0.1% naphthylethylenediamine dihydrochloride and 1% sulfanylamine in 5% phosphoric acid) in a 96-well microtiter plate. Absorbance was read at 540 nm and sodium nitrite was used for standard curve generation.
In addition, the level of LPS-induced NO production after BV2 treatment with Src kinase inhibitor PP2 (5 μM) or PDTC (Ammonium pyrrolidinedithiocarbamate, NFκB inhibitor) was identified to determine whether Src is associated with LPS-induced microglia activity. This is illustrated in FIG. 18.
Next, it was determined whether the PTP1B-mediated proinflammatory response was dependent on Src activity in microglia. […] NO levels were measured in the treated BV2 microglia and the results are illustrated in FIG. 19.
In general terms: Nitrite, measured by Griess reagent, commonly stands in for NO production.

The test system of assay [2] is microglia (Iba-1 positive cells). Description: Iba-1 positive activated microglia in brain of LPS-injected mice (brain inflammation model). Conditions: inhibitor intracerebrally, LPS 5 mg/kg i.p., 48 hours. Type of assay: in vivo, mouse. As for the experimental part: C57BL/6 mice were injected intracerebrally with vehicle (saline solution containing 0.5% DMSO and 5% propylene glycol) or the PTP inhibitor of Table 2 above (dilution in saline solution containing 5% propylene glycol). LPS (5 mg/kg) was intraperitoneally injected 30 minutes after injection. Mice were sacrificed and the brain was analyzed 48 hours after LPS injection.
The mouse model was divided into eight experimental groups; Group 1 treated with saline solution and 0.5% DMSO; Group 2 treated with LPS and 0.5% DMSO; Group 3 treated with LPS and PTP1B inhibitor; Group 4 treated with LPS and TC-PTP inhibitor; Group 5 treated with LPS and SHP2 inhibitor; Group 6 treated with LPS and MEG2 inhibitor; Group 7 treated with LPS and LYP inhibitor; and Group 8 treated with LPS and RPTPP inhibitor. The experimental design above is illustrated in FIG. 4A.
FIG. 4B illustrates the histochemical results of confirming whether the sacrificed mouse brain is morphologically changed by straining the antibody against Iba-1, a marker of microglia.
In addition, the brains were removed and sectioned, and the hippocampus, cortex and thalamus were stained with an antibody against Iba-1. The results of histochemical confirmation are illustrated in FIG. 4C. The results of graphical representation of the number of Iba-1 positive cells per mm^2 are illustrated in FIG. 4D.

In assay [3] the test system is BV2 microglia. Description: TNFα protein ELISA in BV2 microglial culture media. In kind it is cell-based. Conditions: BV2, LPS, 24-hour incubation, ELISA (FIG. 15). As to the method:
In addition, the level of TNFα protein in the BV2 microglial culture media treated with LPS as described above was confirmed by ELISA. […] After 24-hour incubation, the TNFα levels in the culture media were measured using a rat monoclonal anti-mouse TNFα antibody as the capture antibody and a goat biotinylated polyclonal anti-mouse TNFα antibody as the detection antibody. The measured levels of TNFα protein results are illustrated in FIG. 15.

The target in assay [4] is T1, PTP1B (Homo sapiens, UniProt P18031).
T1 sequence (P18031 1-435): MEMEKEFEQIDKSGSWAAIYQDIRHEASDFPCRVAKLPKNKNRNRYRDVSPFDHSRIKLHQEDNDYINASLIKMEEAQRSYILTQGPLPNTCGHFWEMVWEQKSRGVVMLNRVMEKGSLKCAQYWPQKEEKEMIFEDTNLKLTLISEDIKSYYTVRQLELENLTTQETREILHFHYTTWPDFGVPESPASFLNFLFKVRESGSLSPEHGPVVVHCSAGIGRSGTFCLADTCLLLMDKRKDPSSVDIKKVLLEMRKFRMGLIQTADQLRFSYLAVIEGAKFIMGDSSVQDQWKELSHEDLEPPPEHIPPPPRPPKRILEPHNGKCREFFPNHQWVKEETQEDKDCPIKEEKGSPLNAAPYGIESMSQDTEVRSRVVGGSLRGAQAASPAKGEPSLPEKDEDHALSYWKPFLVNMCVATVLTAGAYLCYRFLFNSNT
Particulars: statement without data; inhibitor obtained from Dr. Zhang group; cited from earlier work.

The subject of assay [5] is HAPI cells. Description: TNFα-induced NO production in HAPI rat microglial cell line. In kind it is cell-based. Conditions: 10 μM iPTP1B 1 hour, TNFα 100 ng/ml 24 hours (FIG. 12). The text has this: NO levels were identified in the stimulated cells.
Assay [6] concerns HAPI cells. Description: LPS-induced NO production in HAPI rat microglial cell line. Particulars: 10 μM iPTP1B 1 hour, LPS 100 ng/ml 24 hours (FIG. 11). Type of assay: cell-based.
Description: NO levels were confirmed in the stimulated rat microglial cell line, HAPI cells.
Assay [7] has as its system brain tissues. Description: Real-time PCR of TNFα and IL1β expression in brain tissue after LPS and iPTP1B injection. Type of assay: in vivo, mouse. Particulars: real-time PCR 6 hours after injection of LPS (FIG. 23). As for the experimental part: The expression level of TNFα and IL1β genes, which are proinflammatory factors, was measured by real-time PCR 6 hours after the injection of LPS, and the results are illustrated in FIG. 23.
A general note: In qPCR the cycle at which signal appears reflects the starting amount.

Assay [8] relates to BV2 microglia. Description: RT-PCR of LPS-induced proinflammatory molecule mRNA in BV2 microglia. Type of assay: cell-based. Particulars: BV2, LPS 100 ng/ml 6 hours, RT-PCR (FIGS. 13, 14). From the text: The results are illustrated in FIG. 13.
For assay [9], the system named is primary microglia. Description: LPS-induced NO production in mouse primary microglia. In kind it is cell-based. Particulars: 5 μM iPTP1B, LPS 50 ng/ml 24 hours (FIG. 10). From the text: NO levels were confirmed in the stimulated primary microglia.
Assay [10] relates to Src. Description: Phosphorylation of Src at Y527 in brain of LPS-injected inflammatory mouse model. In kind it is in vivo. Conditions: LPS+iPTP1B or iPTP1B injected into the brain, after 24 hours (FIG. 20). As to the method:
In addition, in vivo experiments were carried out using an inflammatory mouse model injected with LPS to identify the effect of PTP1B on phosphorylation of Src at Y527 in vivo. […] At this time, total Src and beta-actin were used as a loading control group and Lnc2 was used as a marker of neuroinflammation. The results are illustrated in FIG. 20.

For the compound `N.S=C(S)N1CCCC1` [PDTC, Ammonium pyrrolidinedithiocarbamate], the “LPS-induced NO production” value in assay [1] is “inhibited significantly”.
`CC(C)(C)n1nc(-c2ccc(Cl)cc2)c2c(N)ncnc21` [PP2]: the “dose dependence of inhibition of LPS-induced NO production” value in assay [1] (BV2, PP2 pretreatment (FIG. 18)) was “dose-dependent”. In addition, in assay [1], the “LPS-induced NO production” value is “inhibited significantly”. The “NO levels: effect on the anti-inflammatory effect of iPTP1B” value in assay [1] (BV2 pretreated with PP2 or iPTP1B 1 hour, LPS 24 hours (FIG. 19)) is recorded as “eliminated the anti-inflammatory effect of iPTP1B”.
Consider `Cn1c(-c2cccc(NC(=O)CNC(=O)c3cc(Br)cc(I)c3)c2)c(I)c2cc(C(=O)O)c(O)cc21` [RPTPβ inhibitor, 2-(3-(2-(3-bromo-5-iodobenzamido)acetamido)phenyl)-6-hydroxy-3-iodo-1-methyl-1H-indole-5-carboxylic acid], for which, in assay [2], the “activation of LPS-induced microglia (Iba-1 positive cells) in the cortex” value (“activation … in the cortex” for short) was “decrease the activation of LPS-induced microglia” and the “activation of LPS-induced microglia (Iba-1 positive cells) in the hippocampus” value (shortened to “activation … in the hippocampus”) is “decrease the activation of LPS-induced microglia”.
As to `CCc1ccc(C(=O)NCCCC[C@H](NC(=O)[C@H](Cc2ccc(C(F)(F)P(=O)(O)O)cc2)NC(=O)[C@H](Cc2ccccc2)NC(=O)CO[C@@H]2C[C@@H](C)CC[C@@H]2C(C)C)C(N)=O)cc1` [TC-PTP inhibitor], the “activation … in the cortex” value in [2] is “decrease the activation of LPS-induced microglia”.
In the case of “((4-((S)-3-(((S)-1-amino-3-(2-(4-hydroxy-3-methoxyphenyl)acetamido)-1-oxopropan-2-yl)amino)-5-(3-iodobenzamido)-1-oxopentan-2-yl)amino)-6-hydroxy-3-iodo-1-methyl-2-(3-(2-oxo-2-((4-thiophen-3-yl)phenyl)amino)acetamido)phenyl)-1H-indole-5-carboxlic acid [SHP2 inhibitor]”, in assay [2], the “activation … in the hippocampus” value is “decrease the activation of LPS-induced microglia”.
On to “(S)-4-(((S)-1-(12-azanyl)-3-(4-(difluoro(phosphono)methyl)phenyl)-1-oxopropan-2-yl)amino)-3-((S)-3-(4-(difluoro(phosphono)methyl)phenyl)-2-pentadecanamidopropanamido)-4-oxobutanoic acid [iPTP1B]”, for which, in assay [3], the “expression level of TNFα protein in the culture media” value is “significantly low”. In assay [2], the “activation … in the cortex” value is on record as “decrease the activation of LPS-induced microglia” and the “activation … in the hippocampus” value is on record as “decrease the activation of LPS-induced microglia”. In assay [1] (BV2, different concentrations of iPTP1B, LPS 100 ng/ml (FIG. 9)), the “level of LPS-induced NO” value is on record as “dose-dependently decreased”. The “NO production, treatment with inhibitor alone (basic level)” value in [1] (BV2, iPTP1B alone without LPS) is “did not inhibit or increase NO production”. In addition, in assay [1] (BV2, pretreated 1 hour, LPS 100 ng/ml, Griess method (FIG. 9), read-out: IC50 for level of LPS-induced NO), the IC50 worked out at 10.3 µM. For the same compound, the “specificity for PTP1B” value in [4] is recorded as “highly specific to PTP1B”. The “TNFα-induced NO level” value in assay [5] is on record as “significantly decreased”. Besides, the “level of LPS-induced NO” value in assay [6] is “significantly decreased”. For the same compound, in [7], the “expression of IL1β gene in brain” value is recorded as “significantly weakened” and the “expression of TNFα gene in brain” value is on record as “significantly weakened”. For the same compound, in assay [8] (10 M iPTP1B), the “LPS-induced IL1β mRNA expression” value is “significantly inhibits”, the “LPS-induced TNFα mRNA expression” value is reported as “significantly inhibits” and the “LPS-induced iNOS mRNA expression” value was “significantly inhibits”. The “LPS-induced Cox2 mRNA expression” value in assay [8] (iPTP1B) is listed as “significantly inhibits”. In assay [9], the “level of LPS-induced NO” value is reported as “significantly decreased”. Also, in assay [10], the “phosphorylation of Src at Y527 in vivo” value is “increased phosphorylation of Src at Y527”.

In general, IC50 refers to the concentration at which inhibition is half-maximal.

The values are drawn from patent US20200384001A1, “COMPOSITION FOR PREVENTION OR TREATMENT OF NEUROINFLAMMATORY DISEASE, CONTAINING PROTEIN TYROSINE PHOSPHATASE” (KYUNGPOOK NATIONAL UNIVERSITY INDUSTRY - ACADEMIC …, priority 2015, published 2020).
